Laboratory results published in patent US20250129370A1, “METHOD FOR REDUCING HEPATIC TRIGLYCERIDES” (ADAERATA, LIMITED PARTNERSHIP, priority 2022, published 2025).
*: point of attachment. Decanoyl = CCCCCCCCCC(=O)*; CH2Cl = ClC*

Tests used:
[1] = system: Mouse FL38B hepatocyte cells; assay: Lipid droplet accumulation in oleic acid-treated mouse hepatocyte cells; type: cell-based
Procedure: FIGS. 37A-E: Comparison of various ASOs and vitamin E on lipid droplet accumulation in mouse FL38B hepatocytes. (FIG. 37A) Immunocytochemical analysis of mouse FL38B hepatocyte cells incubated for 48 h with oleic acid in the presence of either fluorescent mouse mASO-1, mASO-2 or mASO-7 (not shown) or α-tocopherol (vitamin E) (arrows pointing towards transfected cells, red staining indicate lipid droplets). (FIG. 37B) Quantitative analysis of results expressed in bar graph. (FIGS. 37C-D). The effect of eight ASOs on Pcsk7 mRNA levels as measured by quantitative PCR (qPCR). The experiment was repeated two independent times. *p<0.05 (FIG. 37A) The effect of mASO-1, mASO-2, mASO-7 and Vitamin E on reduction of accumulation of fluorescent triglycerides in cells as estimated by FACS measurement of lipid droplets (LD) by LipidTox™ staining. (FIG. 37E). modifications of ASO by trivalent linkage to N-acetyl-Galactosamine ([…]).
The effect of eight ASOs on Pcsk7 mRNA levels was measured by quantitative PCR (qPCR) (FIG. 37C). Mouse FL38B hepatocyte cells were incubated for 48 h with oleic acid in the presence of either fluorescent (green) mouse mASO-1, mASO-7 or α-tocopherol (vitamin E). […] (FIGS. 37B-37D). Mouse FL38B hepatocyte cells were plated on day 1, ASOs were added on day 2, the media was replaced on day 3 and RNA was extracted on day 4. […]

[2] = system: mice fed a HFFC diet; assay: Liver lipid droplets and histopathology in mice recovering from HFFC diet; type: in vivo, mouse; settings: after 8 weeks recovery and treatment
From the text: FIGS. 39A-D (FIG. 39A) Upper panels—Oil red 0 staining of liver sections control (no treatment), and ASO-2, ASO-7 and α-tocopherol treated mice. Lower panels; Total area of LDs, mean area of LD and LD number in non treated mice or in mice treated with GalNac-ASO-7, GalNac-ASO-2 or α-tocopherol. (FIG. 39B) Liver morphology and fat accumulation measured in terms of liver inflammation, hepatocyte ballooning and steatosis grade in non treated mice or in mice treated with GalNac-ASO-7, GalNac-ASO-2 or α-tocopherol. (FIG. 39C) Extent of fibrosis measured by Sirius red staining in non treated mice or in mice treated with GalNac-ASO-7, GalNac-ASO-2 or α-tocopherol. […]
Eight ASOs against mouse Pcsk7 were tested in mouse FL38B hepatocytes and the best ones, namely ASO2 and ASO7, were modified (FIG. 37D) with covalent linkages to trivalent N-acetyl-Galactosamine (GalNac) residues (FIG. 37E). […] Mice were next injected with 5 mg/kg of either GalNac-ASO7 and GalNac-ASO-2, twice a week for 1 month, whereupon the livers and their partially purified primary hepatocytes were analyzed by RT-qPCR for the levels of Pcsk7 mRNA. […]
The reduction of LD accumulation in mice treated with GalNac-ASO-7 or GalNac-ASO-2 compared to α-tocopherol was next analyzed (FIG. 39A).

[3] = system: Pcsk7 mRNA; assay: Liver Pcsk7 mRNA after the recovery period following HFFC diet; type: in vivo, mouse; settings: after 8 weeks recovery, 500 IU/kg of food
Procedure: The dose-dependent efficacy of these ASOs following their subcutaneous injection in mice was tested for the decrease in total liver Pcsk7 mRNA at 2, 5, 10 and 15 mg/kg, twice a week for 1 month. […] Mice were next injected with 5 mg/kg of either GalNac-ASO7 and GalNac-ASO-2, twice a week for 1 month, whereupon the livers and their partially purified primary hepatocytes were analyzed by RT-qPCR for the levels of Pcsk7 mRNA. […] A program was then set up whereby 8 weeks-old mice were fed a HFFC diet for 16 weeks, after which they were switched to a regular chow diet for another 8 weeks recovery period. The mice were divided into 3 groups of 12 mice each and treated as follows starting from the beginning of the recovery period (FIG. 38C): (1) a control non-treated group; (2) two GalNac-ASO groups subcutaneously injected twice a week for 8 weeks with either GalNac-ASO7 or GalNac-ASO2 at 5 mg/kg; (3) a group fed a chow diet containing Vitamin E (α-tocopherol) at 500 IU/kg of food.
The inventors next compared the levels of Pcsk7 mRNAs in the livers of mice after the 8 weeks recovery period that followed the 16-weeks HFFC diet.

[4] = target: T1, PC7 (Homo sapiens, UniProt Q16549); assay: s-apoB secretion in IHH cells overexpressing PC7, with pan-proprotein convertase inhibitor; type: cell-based; settings: naive IHH cells overexpressing PC7 and s-apoB
T1 construct: expressed in transfected cells; host or cells: naïve IHH cells
T1 sequence (Q16549 142-785): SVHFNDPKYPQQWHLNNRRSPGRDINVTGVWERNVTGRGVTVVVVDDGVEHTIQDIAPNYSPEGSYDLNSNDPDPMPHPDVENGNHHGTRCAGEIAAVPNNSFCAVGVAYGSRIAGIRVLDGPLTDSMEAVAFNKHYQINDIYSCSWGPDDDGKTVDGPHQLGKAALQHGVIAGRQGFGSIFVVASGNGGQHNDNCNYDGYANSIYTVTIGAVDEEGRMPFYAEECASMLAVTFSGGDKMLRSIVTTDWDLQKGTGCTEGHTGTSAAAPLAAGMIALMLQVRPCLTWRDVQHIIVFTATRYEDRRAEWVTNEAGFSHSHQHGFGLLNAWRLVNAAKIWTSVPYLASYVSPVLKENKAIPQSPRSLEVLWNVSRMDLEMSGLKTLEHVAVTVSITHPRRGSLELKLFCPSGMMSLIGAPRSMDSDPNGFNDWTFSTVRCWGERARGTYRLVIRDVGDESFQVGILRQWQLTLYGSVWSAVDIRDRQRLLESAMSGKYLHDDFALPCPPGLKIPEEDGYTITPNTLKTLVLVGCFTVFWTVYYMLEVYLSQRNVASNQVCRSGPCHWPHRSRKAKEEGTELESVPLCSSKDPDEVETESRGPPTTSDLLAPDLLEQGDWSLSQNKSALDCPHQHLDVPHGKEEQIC
Procedure: FIGS. 7A-l: PCSK7 can bind apoB in the ER and acts as a molecular chaperone-like facilitating its secretion, and its absence leads to a rapid degradation of apoB by the proteasome. […] (FIG. 7A) Western blot (presented on gel and graphically) of apoB100 and PC7 protein levels in WT and PCSK7^−/− IHH cells. Levels are normalized to α-tubulin. (FIG. 7B) Western blot (presented on gel and graphically) of apoB100 and PC7 protein levels over time (0, 15 and 30 minutes) in WT and PCSK7^−/− IHH cells incubated with cycloheximide (CHX) to block de novo mRNA translation. Levels are normalized to α-tubulin. (FIG. 7C-D) Western blot (presented on gel and graphically) of cellular apoB levels in WT and PCSK7^−/− IHH cells incubated with brefeldin A (BFA) that blocks exit from the endoplasmic reticulum (ER), an autophagy inhibitor 3-methyladenine (3MA), proteasome inhibitors MG132, Lactacystin, DMSO or non treated (NT) controls. (FIG. 7E) Western blot (presented on gel) of cellular apoB levels and polyubiquitinated apoB100 in WT and PCSK7^−/− IHH cells incubated with Lactacystin. (FIG. 7F) Schematic representation of apoB100 and apoB21 protein. […]

chaperone-like activity of PC7 on apoB (s-apoB secretion) [4] | Compound | accumulation of lipid droplets ([1]; 48 h with oleic acid, immunocytochemistry) | accumulation of fluorescent triglycerides in cells ([1]; FACS measurement of lipid droplets by LipidTox staining) | reduced total area, more abundant but smaller LDs, relative to GalNac-ASO7 [2] | increase in Pcsk7 mRNA levels [3] [%]
– | Cc1c(C)c2c(c(C)c1O)CC[C@@](C)(CCC[C@H](C)CCC[C@H](C)CCCC(C)C)O2 [α-tocopherol] | significantly reduced | best reduction | significantly less | 33
did not block | Decanoyl-RVKR-CH2Cl | – | – | – | –
